{"source": "patent US9063046B1", "about": "“Hand-held device with reagents and method for detection and diagnostics” (priority 2012, dated 2015)", "key": {"spores of B. atrophaeus": {"tested_on": "spores of B. atrophaeus", "format": "cell-based, Bacillus atrophaeus"}, "Pixuna virus (PIXV)": {"tested_on": "Pixuna virus (PIXV)", "format": "cell-based", "details": "screening, FIG. 1; guanidium thiocyanate at 3.5 M"}, "VACV": {"tested_on": "VACV", "parameters": "species or system Vaccinia virus"}, "B. atrophaeus endospores": {"tested_on": "B. atrophaeus endospores", "parameters": "species or system Bacillus atrophaeus"}, "P. aeruginosa": {"tested_on": "P. aeruginosa", "parameters": "species or system Pseudomonas aeruginosa"}}, "data": [{"molecule": "N#CS.N=C(N)N", "note": "[Guanidium thiocyanate, guanidium thiocyanate]", "values": [{"measurement": "killing / inactivating effect on spores", "setting": "spores of B. atrophaeus", "result": "little inactivating effect"}, {"measurement": "inactivating effect on PIXV", "setting": "Pixuna virus (PIXV)", "result": "little inactivating effect"}]}, {"molecule": "O=CCCCC=O", "note": "[glutaraldehyde]", "values": [{"measurement": "killing / inactivating effect on spores", "setting": "spores of B. atrophaeus", "result": "did not completely kill all of the spores"}]}, {"molecule": "OO", "note": "[hydrogen peroxide]", "values": [{"measurement": "killing / inactivating effect on spores", "setting": "spores of B. atrophaeus", "result": "did not completely kill all of the spores"}]}, {"molecule": "CC(=O)OO", "note": "[peracetic acid]", "values": [{"measurement": "ELISA sensitivity for VACV, of untreated controls", "setting": "VACV", "result": "~50", "unit": "%"}]}, {"molecule": "cupric ascorbate", "values": [{"measurement": "ELISA sensitivity for spores, of untreated controls", "setting": "B. atrophaeus endospores", "result": "80-90%"}, {"measurement": "ELISA sensitivity for vegetative bacteria, of untreated controls", "setting": "P. aeruginosa", "result": "80-90%"}]}]}
